Experimental data from patent publication US9247759B2, “Identification of human T2R receptors that respond to bitter compounds that elicit the bitter taste in compositions, and the use thereof in assays to identify compounds that inhibit (block) bitter taste in compositions and use thereof” (SENOMYX, INC., priority 2007, dated 2016).

Key:
[1] = target: T1, hT2R14 (Homo sapiens (Human), UniProt Q9NYV8); assay: hT2R14 antagonist high-throughput FLIPR assay, stable cell line with G16g44, agonist aristolochic acid; type: cell-based; details: read-out: IC50 on hT2R14 bitter receptor
T1 sequence (Q9NYV8 whole entry): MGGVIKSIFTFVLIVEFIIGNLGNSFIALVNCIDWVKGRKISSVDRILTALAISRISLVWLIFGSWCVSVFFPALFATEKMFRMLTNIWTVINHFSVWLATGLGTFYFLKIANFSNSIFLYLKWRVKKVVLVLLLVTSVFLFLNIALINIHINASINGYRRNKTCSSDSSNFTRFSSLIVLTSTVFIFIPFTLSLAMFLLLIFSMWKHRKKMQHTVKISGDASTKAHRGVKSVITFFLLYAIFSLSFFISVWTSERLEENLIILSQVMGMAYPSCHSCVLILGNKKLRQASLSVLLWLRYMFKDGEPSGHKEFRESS
Method in brief: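 Compounds were co-applied with 3 μM aristolochic acid, a dose set to reach 70-80% of maximal hT2R14 activation. Read-out was FLIPR fluorescence in a stable HEK293 line co-expressing hT2R14 and G16g44.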

[2] = target: hT2R3 (Homo sapiens (Human), UniProt Q9NYW6); assay: hT2R panel inhibition, transient HEK293 G16g44, agonist Chloroquine pH6.5 50 μM; type: cell-based; details: HEK293, compound at 25 μM; receptor activated to EC80 with the corresponding agonist; read-out: screening result against bitter receptor 3
Chain of hT2R3 (Q9NYW6 whole entry): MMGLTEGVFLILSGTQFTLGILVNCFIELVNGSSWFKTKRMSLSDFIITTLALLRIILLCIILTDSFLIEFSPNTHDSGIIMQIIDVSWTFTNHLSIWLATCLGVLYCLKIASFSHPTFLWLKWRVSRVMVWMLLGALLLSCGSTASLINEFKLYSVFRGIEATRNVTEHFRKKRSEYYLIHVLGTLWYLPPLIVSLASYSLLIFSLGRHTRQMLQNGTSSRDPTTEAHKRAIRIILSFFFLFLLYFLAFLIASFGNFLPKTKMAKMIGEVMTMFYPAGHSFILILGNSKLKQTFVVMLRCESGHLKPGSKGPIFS
Method in brief: (§1)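 Inhibition is read as loss of receptor activity caused by the test compound against an EC80 agonist challenge. Receptors from a 22-member human panel were introduced one at a time into host cells already stably expressing the chimeric G protein.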

[3] = target: hT2R5 (Homo sapiens (Human), UniProt Q9NYW4); assay: hT2R panel inhibition, transient HEK293 G16g44, agonist Picoline 10 mM; type: cell-based; details: HEK293, compound at 25 μM; receptor activated to EC80 with the corresponding agonist; read-out: screening result against bitter receptor 5
Chain of hT2R5 (Q9NYW4 whole entry): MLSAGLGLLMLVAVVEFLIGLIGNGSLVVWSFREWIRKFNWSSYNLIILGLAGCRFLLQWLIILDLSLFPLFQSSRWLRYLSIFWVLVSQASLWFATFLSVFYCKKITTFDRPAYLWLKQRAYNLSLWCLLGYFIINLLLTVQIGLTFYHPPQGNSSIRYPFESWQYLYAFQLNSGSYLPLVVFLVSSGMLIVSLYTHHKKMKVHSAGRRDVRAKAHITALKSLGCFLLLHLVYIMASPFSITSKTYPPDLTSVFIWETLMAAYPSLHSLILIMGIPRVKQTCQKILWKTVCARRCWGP
Method in brief: as §1

[4] = target: hT2R7 (Homo sapiens (Human), UniProt Q9NYW3); assay: hT2R panel inhibition, transient HEK293 G16g44, agonist Chloroquine pH6.5 10 mM; type: cell-based; details: HEK293, compound at 25 μM; receptor activated to EC80 with the corresponding agonist; read-out: screening result against bitter receptor 7
Chain of hT2R7 (Q9NYW3 whole entry): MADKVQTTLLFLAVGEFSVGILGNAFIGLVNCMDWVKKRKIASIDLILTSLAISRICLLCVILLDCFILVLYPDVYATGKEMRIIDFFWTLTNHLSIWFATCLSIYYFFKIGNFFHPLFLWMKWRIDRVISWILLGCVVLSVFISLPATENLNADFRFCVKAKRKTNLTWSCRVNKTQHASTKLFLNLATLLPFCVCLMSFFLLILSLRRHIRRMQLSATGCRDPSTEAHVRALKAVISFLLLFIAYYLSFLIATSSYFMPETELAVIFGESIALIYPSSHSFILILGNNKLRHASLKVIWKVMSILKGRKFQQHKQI
Method in brief: as §1

[5] = target: hT2R10 (Homo sapiens (Human), UniProt Q9NYW0); assay: hT2R panel inhibition, transient HEK293 G16g44, agonist Strychnine 50 μM; type: cell-based; details: HEK293, read-out: screening result against bitter receptor 10, compound at 25 μM; receptor activated to EC80 with the corresponding agonist
Chain of hT2R10 (Q9NYW0 whole entry): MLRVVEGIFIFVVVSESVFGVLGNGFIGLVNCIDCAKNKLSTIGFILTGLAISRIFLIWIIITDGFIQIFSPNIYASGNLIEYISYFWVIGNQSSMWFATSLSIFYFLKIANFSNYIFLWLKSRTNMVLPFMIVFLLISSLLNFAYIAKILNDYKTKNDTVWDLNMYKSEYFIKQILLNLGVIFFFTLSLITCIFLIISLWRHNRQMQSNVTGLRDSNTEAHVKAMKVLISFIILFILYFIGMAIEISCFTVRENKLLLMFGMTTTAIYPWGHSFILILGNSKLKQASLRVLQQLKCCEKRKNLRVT

[6] = target: hT2R13 (Homo sapiens (Human), UniProt Q9NYV9); assay: hT2R panel inhibition, transient HEK293 G16g44, agonist Oxyphenonium 1 mM; type: cell-based; details: HEK293, compound at 25 μM; receptor activated to EC80 with the corresponding agonist; read-out: screening result against bitter receptor 13
Chain of hT2R13 (Q9NYV9 whole entry): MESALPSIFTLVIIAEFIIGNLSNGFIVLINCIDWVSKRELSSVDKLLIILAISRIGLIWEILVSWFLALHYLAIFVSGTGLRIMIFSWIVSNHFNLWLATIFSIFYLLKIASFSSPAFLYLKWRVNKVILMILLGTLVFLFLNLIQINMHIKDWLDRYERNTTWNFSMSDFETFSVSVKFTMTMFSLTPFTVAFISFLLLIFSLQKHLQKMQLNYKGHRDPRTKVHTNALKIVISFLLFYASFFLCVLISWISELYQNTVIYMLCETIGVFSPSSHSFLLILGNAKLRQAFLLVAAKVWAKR
Description: Specifically, in order to evaluate the inhibitory selectivity of the Compound C compound, this compound was tested against 22 human T2Rs which were deorphaned by Senomyx. These receptors and the bitter ligands that activate these human T2Rs are reported in earlier patent applications which are incorporated by reference herein. These 22 human T2Rs are hT2R1, 3, 4, 5, 7, 8, 9, 10, 13, 14, 16, 44, 51, 54, 55, 61, 63, 64, 65, 67, 71 and 75. The amino acid and nucleic acid sequences of all of these T2Rs may be found in these earlier patent applications. These human T2Rs were each individually transiently transfected into HEK293 cells that stably express the promiscuous G protein G16g44 and functional assays were effected using these receptors as disclosed in these same patent applications. […] The ligands were used at EC80 concentration levels. The list of bitter ligands utilized and the tested ligand concentrations are contained in Table 5 of this example.
Relating to the foregoing, FIG. 5 contains experimental results wherein Compound C was tested with different agonist compounds. The inhibition activity is represented by the reduction of receptor activity in the presence of Compound C. […] These 13 hT2Rs are hT2R3, 7, 10, 14, 16, 44, 51, 55, 61, 63, 64, 65, and 71.

[7] = target: T1, hT2R14; assay: hT2R panel inhibition, transient HEK293 G16g44, agonist Aristolochic Acid 2 μM; type: cell-based; details: HEK293, compound at 25 μM; receptor activated to EC80 with the corresponding agonist; read-out: screening result against bitter receptor 14
Method in brief: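 Agonist challenge was at EC80, with 0.5 mM andrographolide on hT2R8 and 2 μM aristolochic acid on hT2R14. Inhibition was measured in functional assays in HEK293 cells that stably carry the promiscuous G protein G16g44 and were transiently transfected with the individual receptor.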

[8] = target: hT2R16 (Homo sapiens (Human), UniProt Q9NYV7); assay: hT2R panel inhibition, transient HEK293 G16g44, agonist Salicin 1 mM; type: cell-based; details: HEK293, compound at 25 μM; receptor activated to EC80 with the corresponding agonist; read-out: screening result against bitter receptor 16
Chain of hT2R16 (Q9NYV7 whole entry): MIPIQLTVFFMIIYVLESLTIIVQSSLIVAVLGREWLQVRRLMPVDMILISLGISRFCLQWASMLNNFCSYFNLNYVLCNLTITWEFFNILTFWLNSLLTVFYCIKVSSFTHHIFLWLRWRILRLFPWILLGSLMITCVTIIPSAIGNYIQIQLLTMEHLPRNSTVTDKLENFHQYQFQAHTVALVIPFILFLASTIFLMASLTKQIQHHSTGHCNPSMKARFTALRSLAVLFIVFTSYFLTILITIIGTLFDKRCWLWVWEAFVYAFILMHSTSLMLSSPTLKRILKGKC
Method in brief: as §1

[9] = tested on: hT2R44; assay: hT2R panel inhibition, transient HEK293 G16g44, agonist Denatonium 0.5 μM; type: cell-based, human; details: compound at 25 μM; receptor activated to EC80 with the corresponding agonist
Method in brief: as §1

[10] = target: hT2R51 (Homo sapiens (Human), UniProt P59533); assay: hT2R panel inhibition, transient HEK293 G16g44, agonist Prop 2.5 μM; type: cell-based; details: HEK293, compound at 25 μM; receptor activated to EC80 with the corresponding agonist; read-out: screening result against bitter receptor 51
Chain of hT2R51 (P59533 whole entry): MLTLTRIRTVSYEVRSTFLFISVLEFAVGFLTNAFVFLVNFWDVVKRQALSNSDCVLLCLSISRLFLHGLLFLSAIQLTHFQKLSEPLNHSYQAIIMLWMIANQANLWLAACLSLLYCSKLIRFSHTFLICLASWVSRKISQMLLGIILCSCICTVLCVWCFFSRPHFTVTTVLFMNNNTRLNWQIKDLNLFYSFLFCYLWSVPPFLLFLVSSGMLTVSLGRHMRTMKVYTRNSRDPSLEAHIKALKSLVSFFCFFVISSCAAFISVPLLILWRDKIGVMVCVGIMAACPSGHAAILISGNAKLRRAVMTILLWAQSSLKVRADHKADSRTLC
Method in brief: as §1

[11] = tested on: hT2R54; assay: hT2R panel inhibition, transient HEK293 G16g44, agonist Ranitidine 5 mM; type: cell-based, human; details: compound at 25 μM; receptor activated to EC80 with the corresponding agonist
Method in brief: as §1

[12] = tested on: hT2R55; assay: hT2R panel inhibition, transient HEK293 G16g44, agonist Cinchonine 150 μM; type: cell-based, human; details: compound at 25 μM; receptor activated to EC80 with the corresponding agonist
Method in brief: as §1

[13] = target: hT2R61 (Homo sapiens (Human), UniProt P59537); assay: hT2R panel inhibition, transient HEK293 G16g44, agonist Aristolochic Acid 25 nM; type: cell-based; details: HEK293, compound at 25 μM; receptor activated to EC80 with the corresponding agonist; read-out: screening result against bitter receptor 61
Chain of hT2R61 (P59537 whole entry): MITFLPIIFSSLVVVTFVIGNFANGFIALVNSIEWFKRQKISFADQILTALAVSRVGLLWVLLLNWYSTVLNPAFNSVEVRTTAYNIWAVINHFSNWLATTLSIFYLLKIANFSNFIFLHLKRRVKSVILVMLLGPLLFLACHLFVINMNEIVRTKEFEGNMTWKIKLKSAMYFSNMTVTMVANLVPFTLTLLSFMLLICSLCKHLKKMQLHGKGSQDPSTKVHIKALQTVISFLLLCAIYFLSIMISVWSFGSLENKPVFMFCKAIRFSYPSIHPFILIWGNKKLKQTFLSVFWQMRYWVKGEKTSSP
Method in brief: as §1

[14] = tested on: hT2R63; assay: hT2R panel inhibition, transient HEK293 G16g44, agonist Caffeine 1 mM or Andrographolide 100 μM; type: cell-based, human; details: compound at 25 μM; receptor activated to EC80 with the corresponding agonist
Method in brief: as §1

[15] = target: hT2R64 (Homo sapiens (Human), UniProt P59538); assay: hT2R panel inhibition, transient HEK293 G16g44, agonist Aristolochic Acid 1 μM; type: cell-based; details: HEK293, compound at 25 μM; receptor activated to EC80 with the corresponding agonist; read-out: screening result against bitter receptor 64
Chain of hT2R64 (P59538 whole entry): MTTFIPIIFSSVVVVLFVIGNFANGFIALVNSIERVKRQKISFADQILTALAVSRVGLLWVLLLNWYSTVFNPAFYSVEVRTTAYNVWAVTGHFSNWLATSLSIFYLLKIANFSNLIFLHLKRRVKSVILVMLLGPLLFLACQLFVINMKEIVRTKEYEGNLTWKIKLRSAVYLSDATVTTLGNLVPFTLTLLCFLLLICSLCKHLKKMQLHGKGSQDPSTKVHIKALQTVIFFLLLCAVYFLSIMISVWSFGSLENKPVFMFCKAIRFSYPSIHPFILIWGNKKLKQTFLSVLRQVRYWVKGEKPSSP
Method in brief: as §1

[16] = tested on: hT2R65; assay: hT2R panel inhibition, transient HEK293 G16g44, agonist Oleuropein 1 mM; type: cell-based, human; details: compound at 25 μM; receptor activated to EC80 with the corresponding agonist
Method in brief: as §1

[17] = tested on: hT2R67; assay: hT2R panel inhibition, transient HEK293 G16g44, agonist Andrographolide 5 μM; type: cell-based, human; details: compound at 25 μM; receptor activated to EC80 with the corresponding agonist
Method in brief: as §1

[18] = target: hT2R71 (Homo sapiens (Human), UniProt P59536); assay: hT2R panel inhibition, transient HEK293 G16g44, agonist Picric Acid 10 μM; type: cell-based; details: HEK293, compound at 25 μM; receptor activated to EC80 with the corresponding agonist; read-out: screening result against bitter receptor 71
Chain of hT2R71 (P59536 whole entry): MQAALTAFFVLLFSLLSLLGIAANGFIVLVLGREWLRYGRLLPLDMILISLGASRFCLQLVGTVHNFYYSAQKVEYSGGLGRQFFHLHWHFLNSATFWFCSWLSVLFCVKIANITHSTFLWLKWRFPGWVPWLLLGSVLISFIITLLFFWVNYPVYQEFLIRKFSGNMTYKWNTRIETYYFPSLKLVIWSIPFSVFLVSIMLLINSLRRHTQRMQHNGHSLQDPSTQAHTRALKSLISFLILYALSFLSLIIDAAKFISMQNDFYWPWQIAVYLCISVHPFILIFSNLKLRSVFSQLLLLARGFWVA
Method in brief: as §1

[19] = target: hT2R75 (Homo sapiens (Human), UniProt P59540); assay: hT2R panel inhibition, transient HEK293 G16g44, agonist Strychnine 1 μM; type: cell-based; details: HEK293, read-out: screening result against bitter receptor 75, compound at 25 μM; receptor activated to EC80 with the corresponding agonist
Chain of hT2R75 (P59540 whole entry): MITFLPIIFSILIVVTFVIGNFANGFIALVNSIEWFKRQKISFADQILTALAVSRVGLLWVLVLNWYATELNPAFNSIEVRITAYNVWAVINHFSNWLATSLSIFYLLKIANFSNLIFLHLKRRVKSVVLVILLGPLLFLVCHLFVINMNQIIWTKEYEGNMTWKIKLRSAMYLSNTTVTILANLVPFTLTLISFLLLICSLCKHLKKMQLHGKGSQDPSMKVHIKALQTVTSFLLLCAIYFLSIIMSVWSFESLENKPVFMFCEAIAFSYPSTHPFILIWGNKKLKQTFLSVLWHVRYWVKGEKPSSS

Row | SMILES | IC50 [1] [µM] | inhibition at 25 µM [2] [%] | inhibition at 25 µM [3] [%] | inhibition at 25 µM [4] [%] | inhibition at 25 µM [5] [%] | inhibition at 25 µM [6] [%] | inhibition at 25 µM [7] [%] | inhibition at 25 µM [8] [%] | screening result against bitter receptor 44 [9] | inhibition at 25 µM [10] [%] | screening result against bitter receptor 54 [11] | screening result against bitter receptor 55 [12] | inhibition at 25 µM [13] [%] | screening result against bitter receptor 63 [14] | inhibition at 25 µM [15] [%] | screening result against bitter receptor 65 [16] | screening result against bitter receptor 67 [17] | inhibition at 25 µM [18] [%] | inhibition at 25 µM [19] [%]
1 | O=C(O)c1ccc(S(=O)(=O)N(Cc2ccccc2)Cc2ccco2)cc1 [Example 5-5, 4-(N-benzyl-N-(furan-2-ylmethyl)sulfamoyl)benzoic acid] | 4.6 | 40 to 60 | 20 to 40 | 40 to 60 | 20 to 40 | 20 to 40 | > 80 | 40 to 60 | ++ (40% to 60% inhibition = ++) | 20 to 40 | + (20% to 40% inhibition = +) | ++++ (80% or greater inhibition = ++++) | > 80 | ++++ (80% or greater inhibition = ++++) | 60 to 80 | + (20% to 40% inhibition = +) | + (20% to 40% inhibition = +) | 60 to 80 | 20 to 40
2 | COc1ccc(CN(Cc2ccoc2)S(=O)(=O)c2ccc(C(=O)O)cc2)cc1 [Example 5-27, 4-(N-(furan-3-ylmethyl)-N-(4-methoxybenzyl)sulfamoyl)benzoic acid] |  | 40 to 60 | 40 to 60 | 20 to 40 | 60 to 80 | 20 to 40 | > 80 | 20 to 40 | +++ (60% to 80% inhibition = +++) | 40 to 60 | ++ (40% to 60% inhibition = ++) | ++++ (80% or greater inhibition = ++++) | > 80 | +++ (60% to 80% inhibition = +++) | 60 to 80 | ++ (40% to 60% inhibition = ++) | ++ (40% to 60% inhibition = ++) | 60 to 80 | 20 to 40
3 | O=C(O)c1ccc(S(=O)(=O)N(Cc2ccccc2)Cc2ccccc2)cc1 [Example 5-28, 4-(N,N-dibenzylsulfamoyl)benzoic acid] | 7.74 |  |  |  |  | 20 to 40 | > 80 | 20 to 40 | + (20% to 40% inhibition = +) | 40 to 60 | + (20% to 40% inhibition = +) | ++++ (80% or greater inhibition = ++++) | 40 to 60 | ++++ (80% or greater inhibition = ++++) | > 80 |  | + (20% to 40% inhibition = +) | 40 to 60 | 20 to 40
4 | CCc1ccc(CN(Cc2ccccc2)S(=O)(=O)c2ccc(C(=O)O)cc2)cc1 [Example 5-85, 4-(N-benzyl-N-(4-ethylbenzyl)sulfamoyl)benzoic acid] |  | 40 to 60 | 20 to 40 | 20 to 40 | 40 to 60 | 20 to 40 | > 80 | 40 to 60 |  | 20 to 40 | +++ (60% to 80% inhibition = +++) | +++ (60% to 80% inhibition = +++) | > 80 | +++ (60% to 80% inhibition = +++) |  | +++ (60% to 80% inhibition = +++) | ++ (40% to 60% inhibition = ++) | 20 to 40 | 20 to 40
5 | O=C(O)c1ccc(S(=O)(=O)N(Cc2ccccc2)Cc2ccc3c(c2)OCO3)cc1 [Example 5-93, 4-(N-(benzo[d][1,3]dioxol-5-ylmethyl)-N-benzylsulfamoyl)benzoic acid] |  |  | 20 to 40 | 20 to 40 | 40 to 60 | 20 to 40 | > 80 | 40 to 60 | +++ (60% to 80% inhibition = +++) | 40 to 60 | +++ (60% to 80% inhibition = +++) | ++++ (80% or greater inhibition = ++++) | > 80 | ++++ (80% or greater inhibition = ++++) | > 80 |  | ++ (40% to 60% inhibition = ++) | 60 to 80 | 
6 | COc1ccc(CN(Cc2ccc(F)c(OC)c2)S(=O)(=O)c2ccc(C(=O)O)cc2)cc1 [Example 5-50, 4-(N-(4-fluoro-3-methoxybenzyl)-N-(4-methoxybenzyl)sulfamoyl)-benzoic acid] | 1.65 | 40 to 60 | 20 to 40 | 20 to 40 | 20 to 40 | 20 to 40 | > 80 | 40 to 60 | +++ (60% to 80% inhibition = +++) | 20 to 40 |  | ++++ (80% or greater inhibition = ++++) | > 80 | ++++ (80% or greater inhibition = ++++) | 60 to 80 | ++ (40% to 60% inhibition = ++) | ++ (40% to 60% inhibition = ++) | 60 to 80 | 
